We go through eight compounds from PMC7566811 (Bioorganic & medicinal chemistry, 2010).

One may read the AUC as concentration integrated over time. Read a high AUC as high exposure. For orientation: pIC50 means the negative decadic logarithm of the IC50, by convention in mol/L.

Data set [1] can be described thus: Single dose pharmacokinetics in rats. The settings on record: rat; for AUC: 30 mg/kg po, normalized to a dose of 30 mg/kg.
A further data set deals with human CCR5 (Homo sapiens, UniProt P51681). Put plainly: Inhibition of calcium mobilization of hCCR5/CHO cells stimulated with MIP-1α. It is filed as cell-based.
Chain of human CCR5 (P51681 whole entry): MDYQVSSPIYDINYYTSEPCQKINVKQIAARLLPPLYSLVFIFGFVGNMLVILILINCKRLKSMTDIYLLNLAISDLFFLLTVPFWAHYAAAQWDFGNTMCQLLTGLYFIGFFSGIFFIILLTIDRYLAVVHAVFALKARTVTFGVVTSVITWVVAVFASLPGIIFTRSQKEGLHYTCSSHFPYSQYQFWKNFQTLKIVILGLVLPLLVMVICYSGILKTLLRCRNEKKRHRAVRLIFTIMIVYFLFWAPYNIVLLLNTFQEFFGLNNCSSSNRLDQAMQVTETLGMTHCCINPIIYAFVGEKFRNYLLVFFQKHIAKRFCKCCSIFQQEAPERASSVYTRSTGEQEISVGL
For data set [2] the following is noted: ref 6a; cited from earlier work.
The nature of the next data set: Oral cassette dosing PK. It counts as in vivo.
A further data set has as its system T cell tropic (X4) HIV-1. In words: Anti-HIV activity against X4 HIV-1. It is filed as cell-based.

Each structure is given as a SMILES string. pIC50: −log10 of the molar value. Structures can show the parent of a compound that is named as a salt.

In turn, `CCCCN1C(=O)[C@H](CC2CCCCC2)NC(=O)C12CCN(Cc1ccc(Oc3ccc(O)cc3)cc1)CC2.Cl` [Compound 36, (3S)-1-Butyl-3-(cyclohexylmethyl)-9-[4-(4-hydroxyphenoxy)benzyl]-1,4,9-triazaspiro[5.5]undecane-2,5-dione hydrochloride] yielded an AUC in data set [1] of 195 ng·h/mL.

On to `CC(C)CC1NC(=O)C2(CCN(Cc3ccc(Oc4ccccc4)cc3)CC2)N(CCC(C)O)C1=O.Cl` (stereo not drawn) [Compound 4, 1-(3-Hydroxybutyl)-3-isobutyl-9-(4-phenoxybenzyl)-1,4,9-triazaspiro[5.5]undecane-2,5-dione hydrochloride], for which the BA in data set [1] (30 mg/kg po vs 3 mg/kg iv) was 34.1%.

As to `CCCCN1C(=O)C(COC)NC(=O)C12CCN(Cc1ccc(Oc3ccccc3)cc1)CC2` (stereo not drawn) [Compound 13, 1-Butyl-3-(methoxymethyl)-9-(4-phenoxybenzyl)-1,4,9-triazaspiro[5.5]undecane-2,5-dione hydrochloride], on human CCR5, the pIC50 was 6.49.

As for `CCCCN1C(=O)C(CC2CCCCC2)NC(=O)C12CCN(Cc1ccc(Oc3ccccc3)cc1)CC2.Cl` (stereo not drawn) [Compound 1a, 1-Butyl-3-(cyclohexylmethyl)-9-(4-phenoxybenzyl)-1,4,9-triazaspiro[5.5]undecane-2,5-dione hydrochloride], the Cytotoxicity entry in data set [2] is “minimal”.

As for `CCCCN1C(=O)[C@H](CC2CCCCC2)NC(=O)C12CCN(Cc1ccc(Oc3ccc(NS(C)(=O)=O)cc3)cc1)CC2.Cl` [Compound 38, N-[4-(4-{[(3S)-1-Butyl-3-(cyclohexylmethyl)-2,5-dioxo-1,4,9-triazaspiro[5.5]undec-9-yl]methyl}phenoxy)phenyl]methanesulfonamide hydrochloride], the “AUC after oral cassette dosing” value in “Oral cassette dosing PK” is on record as “poor”.

For the compound `CCCCN1C(=O)[C@H](CC2CCCCC2)NC(=O)C12CCN(Cc1ccc(Oc3ccc(C(=O)O)cc3)cc1)CC2.Cl` [Compound 40, 4-(4-{[(3S)-1-Butyl-3-(cyclohexylmethyl)-2,5-dioxo-1,4,9-triazaspiro[5.5]undec-9-yl]methyl}phenoxy)benzoic acid hydrochloride], the “Activity against T cell tropic (X4) HIV-1” value with T cell tropic (X4) HIV-1 is “inactive”. In data set [1], the AUC is 10,532 ng h/mL.

With `CCCCN1C(=O)C(CC(C)C)NC(=O)C12CCN(Cc1ccc(Oc3ccccc3)cc1)CC2.Cl` (stereo not drawn) [Compound 1b, 1-Butyl-3-isobutyl-9-(4-phenoxybenzyl)-1,4,9-triazaspiro[5.5]undecane-2,5-dione hydrochloride], the Cytotoxicity result in data set [2] is listed as “minimal”.

With `CCCCN1C(=O)[C@H](CC2CCCCC2)NC(=O)C12CCN(Cc1ccc(Oc3ccc(S(N)(=O)=O)cc3)cc1)CC2.Cl` [Compound 39, 4-(4-{[(3S )-1-Butyl-3-(cyclohexylmethyl)-2,5-dioxo-1,4,9-triazaspiro[5.5]undec-9-yl]methyl}phenoxy)benzenesulfonamide hydrochloride], the “AUC after oral cassette dosing” value in the data set “Oral cassette dosing PK” is given as “poor”.
